What was measured:
Assay in all cases: Assay B: in vitro antibacterial activity, broth microdilution MIC (NCCLS)
Format in all cases: cell-based
[1] = tested on: Enterococcus faecalis PIU 1967; conditions: Table 2, Assay B, cation-adjusted Mueller Hinton broth, 35° C., 16 to 20 hr; code B = Enterococcus faecalis PIU 1967; unit assumed
How it was run: (§1)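 NCCLS broth microdilution with two-fold dilutions in cation-adjusted Mueller Hinton broth, inoculum about 5×10^5 CFU/mL, 35 °C in ambient air for 16-20 h; MIC read visually as lowest concentration completely inhibiting growth. S. pneumoniae: 3% lysed horse blood, 20-24 h; H. influenzae: 5 g/L yeast extract, 0.3 mmol/L hematin, 15 mg/L NAD, 20-24 h.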

[2] = tested on: Staphylococcus aureus ATCC 6538P; conditions: Table 2, Assay B, cation-adjusted Mueller Hinton broth, 35° C., 16 to 20 hr; code A = Staphylococcus aureus ATCC 6538P; unit assumed
How it was run: as §1

[3] = tested on: Haemophilus influenzae DILL AMP R; conditions: Table 2, Assay B, Mueller Hinton broth with yeast extract, hematin and NAD, 20 to 24 hr; code E = Haemophilus influenzae DILL AMP R; unit assumed
How it was run: as §1

[4] = tested on: Streptococcus pneumoniae ATCC 6303; conditions: Table 2, Assay B, Mueller Hinton broth with 3% lysed horse blood, 20 to 24 hr; code F = Streptococcus pneumoniae ATCC 6303; unit assumed
How it was run: as §1

Escherichia coli JUHL = conditions: Table 2, Assay B, cation-adjusted Mueller Hinton broth, 35° C., 16 to 20 hr; code D = Escherichia coli JUHL; unit assumed
How it was run: as §1

Row | SMILES | Antibacterial Activity (MIC's), B [1] [µg/mL] | Antibacterial Activity (MIC's), A [2] [µg/mL] | Antibacterial Activity (MIC's), E [3] [µg/mL] | Antibacterial Activity (MIC's), F [4] [µg/mL] | Antibacterial Activity (MIC's), D (Escherichia coli JUHL) [µg/mL]
1 | COc1c(-c2cc3c(s2)CCC(=NO)C3)ccc2c(=O)c(C(=O)O)cn(C3CC3)c12 [Example 55, 1-cyclopropyl-7-((5E/Z)-5-(hydroxyimino)-4,5,6,7-tetrahydro-1-benzothien-2-yl)-8-methoxy-4-oxo-1,4-dihydro-3-quinolinecarboxylic acid] | 0.125 | ≤ 0.004 | 0.06 | 0.125 | 0.5
2 | COc1c(-c2cc3c(s2)S(=O)(=O)CCC3O)ccc2c(=O)c(C(=O)O)cn(C3CC3)c12 (centres unmarked) [Example 135, 1-cyclopropyl-7-(4-hydroxy-7,7-dioxido-5,6-dihydro-4H-thieno[2,3-b]thiopyran-2-yl)-8-methoxy-4-oxo-1,4-dihydro-3-quinolinecarboxylic acid] | 1 | 1 | 1 | 4 | 16
3 | COc1c(-c2cc3c(s2)CCC(C)C3O)ccc2c(=O)c(C(=O)O)cn(C3CC3)c12 (centres unmarked) [Example 185, 1-cyclopropyl-7-(4-hydroxy-5-methyl-4,5,6,7-tetrahydro-1-benzothien-2-yl)-8-methoxy-4-oxo-1,4-dihydro-3-quinolinecarboxylic acid] | 0.25 | 0.015 | 0.125 | 0.5 | 0.5
4 | COc1c(-c2cc3c(s2)C(O)CCC3(C)C)ccc2c(=O)c(C(=O)O)cn(C3CC3)c12 (centres unmarked) [Example 218, 1-cyclopropyl-7-(7-hydroxy-4,4-dimethyl-4,5,6,7-tetrahydro-1-benzothien-2-yl)-8-methoxy-4-oxo-1,4-dihydro-3-quinolinecarboxylic acid] | 0.25 | 0.06 | 0.25 | 0.5 | 2
5 | Cl.NC1CCCc2sc(-c3ccc4c(=O)c(C(=O)O)cn(C5CC5)c4n3)cc21 (centres unmarked) [Example 200, 7-(4-amino-4,5,6,7-tetrahydro-1-benzothien-2-yl)-1-cyclopropyl-4-oxo-1,4-dihydro[1,8]naphthyridine-3-carboxylic acid hydrochloride] | 0.125 | 0.03 | 0.03 | 0.125 | 0.06
6 | COc1c(-c2cc3c(s2)CCC(C)C3=O)ccc2c(=O)c(C(=O)O)cn(C3CC3)c12 (centres unmarked) [Example 106, 1-cyclopropyl-8-methoxy-7-(5-methyl-4-oxo-4,5,6,7-tetrahydro-1-benzothien-2-yl)-4-oxo-1,4-dihydro-3-quinolinecarboxylic acid] | 0.125 | 0.08 | 0.06 | 0.125 | 0.5
7 | CNC(=S)NN=C1CCCc2sc(-c3ccc4c(=O)c(C(=O)O)cn(C5CC5)c4c3OC)cc21 [Example 85] | 0.25 | 0.03 | 0.125 | 0.125 | 0.5
8 | COc1c(-c2cc3c(s2)CCCC3NCCO)ccc2c(=O)c(C(=O)O)cn(C3CC3)c12.Cl (centres unmarked) [Example 155, 1-cyclopropyl-7-(4-((2-hydroxyethyl)amino)-4,5,6,7-tetrahydro-1-benzothien-2-yl)-8-methoxy-4-oxo-1,4-dihydro-3-ouinolinecarboxylic acid hydrochloride] | 0.125 | 0.03 | 0.06 | 0.03 | 0.5
9 | COc1c(-c2cc3c(s2)CCCC3CN(C)C)ccc2c(=O)c(C(=O)O)cn(C3CC3)c12 (centres unmarked) [Example 127, 1-cyclopropyl-7-(4-((dimethylamino)methyl)-4,5,6,7-tetrahydro-1-benzothien-2-yl)-8-methoxy-4-oxo-1,4-dihydro-3-quinolinecarboxylic acid] | 0.25 | 0.5 | 0.125 | 0.5 | 1
10 | COc1c(-c2cc3c(s2)S(=O)(=O)N(C)CC3N)ccc2c(=O)c(C(=O)O)cn(C3CC3)c12.Cl (centres unmarked) [Example 109, 7-(4-amino-2-methyl-1,1-dioxido-3,4-dihydro-2H-thieno[3,2-e][1,2]thiazin-6-yl)-1-cyclopropyl-8-methoxy-4-oxo-1,4-dihydro-3-quinolinecarboxylic acid hydrochloride] | 2 | 0.125 | 0.125 | 0.5 | 8
11 | COc1c(-c2cc3c(s2)CCCC3NC2CCN(C)CC2)ccc2c(=O)c(C(=O)O)cn(C3CC3)c12.Cl.Cl (centres unmarked) [Example 133, 1-cyclopropyl-8-methoxy-7-(4-((1-methyl-4-piperidinyl)amino)-4,5,6,7-tetrahydro-1-benzothien-2-yl)-4-oxo-1,4-dihydro-3-quinolinecarboxylic acid dihydrochloride] | 1 | 0.5 | 1 | 1 | 1
12 | COc1c(-c2cc3c(s2)CCCC3=NN2CCOCC2)ccc2c(=O)c(C(=O)O)cn(C3CC3)c12 [Example 68, 1-cyclopropyl-8-methoxy-7-((4E/Z)-4-(4-morpholinvlimino)-4,5,6,7-tetrahydro-1-benzothien-2-yl)-4-oxo-1,4-dihydro-3-quinolinecarboxylic acid] | 0.125 | 0.008 | 0.06 | 0.125 | 0.5
13 | COc1c(-c2nc3c(s2)C(=O)CCC3)ccc2c(=O)c(C(=O)O)cn(C3CC3)c12 [Example 239, 1-cyclopropyl-8-methoxy-4-oxo-7-(7-oxo-4,5,6,7-tetrahydro-1,3-benzothiazol-2-yl)-1,4-dihydro-3-quinolinecarboxylic acid] | 32 | 1 | 4 | > 64 | 32

The next lines start with the values.

Row | Antibacterial Activity (MIC's), B [1] [µg/mL] | Antibacterial Activity (MIC's), A [2] [µg/mL] | Antibacterial Activity (MIC's), E [3] [µg/mL] | Antibacterial Activity (MIC's), F [4] [µg/mL] | Antibacterial Activity (MIC's), D (Escherichia coli JUHL) [µg/mL] | SMILES
14 | 0.125 | 0.03 | 0.015 | 0.03 | 0.03 | Cl.NC1CCCc2cc(-c3ccc4c(=O)c(C(=O)O)cn(C5CC5)c4c3)sc21 (centres unmarked) [Example 288, 7-(7-amino-4,5,6,7-tetrahydro-1-benzothien-2-yl)-1-cyclopropyl-4-oxo-1,4-dihydroquinoline-3-carboxylic acid hydrochloride]
15 | 4 | 0.5 | 2 | 8 | 32 | COc1c(-c2cc3c(s2)CC(=NOCc2ccccc2)C3)ccc2c(=O)c(C(=O)O)cn(C3CC3)c12 [Example 255]
16 | 0.25 | ≤ 0.004 | 0.06 | 0.5 | 0.5 | O=C(O)c1cn(C2CC2)c2cc(-c3cc4c(s3)CCCC4O)c(F)cc2c1=O (centres unmarked) [Example 296, 1-cyclopropyl-6-fluoro-7-(4-hydroxy-4,5,6,7-tetrahydro-1-benzothien-2-yl)-4-oxo-1,4-dihydroquinoline-3-carboxylic acid]
17 | 0.06 | ≤ 0.004 | ≤ 0.004 | 0.03 | 0.06 | Cc1c(-c2cc3c(s2)CCCC3O)c(F)cc2c(=O)c(C(=O)O)cn(C3CC3)c12 (centres unmarked) [Example 316, 1-cyclopropyl-6-fluoro-7-(4-hydroxy-4,5,6,7-tetrahydro-1-benzothien-2-yl)-8-methyl-4-oxo-1,4-dihydroquinoline-3-carboxylic acid]
18 | 0.125 | 0.03 | 0.015 | 0.5 | 0.06 | COc1c(-c2cc3c(s2)CC(N)C3)ccc2c(=O)c(C(=O)O)cn(C3CC3)c12.Cl (centres unmarked) [Example 249, 7-(5-amino-5,6-dihydro-4H-cyclopenta[b]thien-2-yl)-1-cyclopropyl-8-methoxy-4-oxo-1,4-dihydro-3-quinolinecarboxylic acid hydrochloride]
19 | 0.25 | 0.125 | 0.015 | 0.125 | 0.125 | Cl.NC1CCCc2cc(-c3cc(F)c4c(=O)c(C(=O)O)cn(C5CC5)c4c3F)sc21 (centres unmarked) [Example 326, 7-(7-amino-4,5,6,7-tetrahydro-1-benzothien-2-yl)-1-cyclopropyl-5,8-difluoro-4-oxo-1,4-dihydroquinoline-3-carboxylic acid hydrochloride]
